Experimental data: EPA's ToxValDB 9.5
Where “and” joins values, the source holds several entries; their conditions need not be identical. Equal entries are not always repeated.

Tests used:
[1] = system: Rattus norvegicus; conditions: oral
[2] = system: Mus musculus; conditions: oral
[3] = chronic, duration: 14 weeks, M, Sprague-Dawley, Hematological: 45% increase in non-segmented neutrophils
[4] = chronic, duration: 104 weeks, F, Sprague-Dawley, Body Weight: 14% reduction in final body weight
[5] = chronic, duration: 104 weeks, M, Sprague-Dawley, Hepatic: Hepatocellular hypertrophy at ?0.1 mg/kg/day / single cell necrosis and cystic degeneration at […]
[6] = developmental, duration: 20 days, Sprague-Dawley, Developmental: Reduced serum T4 in pups at 1 mg/kg/day / approximately 60% survival at weaning versus 80% in controls at 2 mg/kg/day
[7] = developmental, duration: 21 days, F, Sprague-Dawley, Developmental: ~30% increased locomotor activity and concurrent failure to habituate to test environment in male pups on PND 17
[8] = reproduction developmental, duration: 19 days, F, Sprague-Dawley, Body Weight: Decreased mean body weight gain, 10% at 2 mg/kg/day and 33% at 5 mg/kg/day
[9] = reproduction developmental, duration: 67 days, F, Sprague-Dawley, Body Weight: 22% reduction in body weight gain during premating / food consumption reduced […]
[10] = reproduction developmental, duration: 84 days, M/F, Sprague-Dawley, Body Weight: >10% reduction in body weight
[11] = short-term, duration: 28 days, F, Sprague-Dawley, Hematological: Decreased red blood cells (8.9%), hemoglobin (10%), hematocrit (8.8%)
[12] = short-term, duration: 28 days, M/F, Sprague-Dawley, Endocrine: Decreased T4 level (82% in males / 48% in females)
[13] = developmental, duration: 17 days, F, B6C3F1, Developmental: 42.5% reduced NK cell activity in male pups at 8 weeks of age
[14] = reproduction developmental, duration: 17 days, F, CD1, Endocrine: Decreased total T4 on GD 6
[15] = short-term, duration: 21 days, M, CD1, Body Weight: ~15% reduced body weight + Reproductive: ~17% reduced serum testosterone, ~38% reduced epididymal sperm count
[16] = short-term, duration: 28 days, M, B6C3F1, Immunotoxicological: Suppressed response to sRBC (~60%)
[17] = subchronic, duration: 60 days, M, Immunotoxicological: Impaired response to sRBC

With `O=S(=O)([O-])C(F)(F)C(F)(F)C(F)(F)C(F)(F)C(F)(F)C(F)(F)C(F)(F)C(F)(F)F.[K+]` [Potassium perfluorooctanesulfonate] the LOAEL ([1]; acute, duration: 1 days, F, Sprague-Dawley, Endocrine: Transient decrease in serum TT4 (24, 38, and 53% after 2, 6, and 24 hours, respectively)) was 15 mg/kg-day, the NOAEL ([1]; acute, duration: 1 days, M, Sprague-Dawley) was 10.3 mg/kg-day and the NOAEL ([1]; chronic, duration: 14 weeks, F, Sprague-Dawley, Immunotoxicological: No histological alterations + Neurological: No histological alterations) was 1.56 mg/kg-day. The LOAEL [1, 3] was 1.33 mg/kg-day, the NOAEL [1, 3] was 0.34 mg/kg-day and the NOAEL ([1]; chronic, duration: 14 weeks, M, Sprague-Dawley, Hepatic: Increased absolute and relative liver weight / increased serum ALT / hepatocyte hypertrophy and vacuolation at 1.33/1.55 mg/kg/…) was 1.33 mg/kg-day. It also gave an LOAEL [1, 4] of 1.04 mg/kg-day, an NOAEL [1, 4] of 0.25 mg/kg-day and an NOAEL ([1]; chronic, duration: 104 weeks, M/F, Sprague-Dawley, Immunotoxicological: No histological alterations + Neurological: No histological alterations + Reproductive: No histological alterations) of 1.04 mg/kg-day. The LOAEL [1, 5] was 1.04 mg/kg-day, the NOAEL [1, 5] was 0.25 mg/kg-day and the LOAEL ([1]; chronic, duration: 91 days, M, Sprague-Dawley, Endocrine: 42% decrease in total T4 levels) was 0.27 mg/kg-day. For the same compound, the LOAEL ([1]; developmental, duration: 2 days, F, Sprague-Dawley, Developmental: Decreased neonatal survival (82% of controls on PND 1)) was 25 mg/kg-day, the LOAEL ([1]; developmental, duration: 2 days, F, Sprague-Dawley, Developmental: Increased neonatal mortality) was 25 mg/kg-day and the LOAEL ([1]; developmental, duration: 4 days, Sprague-Dawley, Body Weight: Weight loss during treatment when treated on GDs 2-5 (22%) or 6-9 (17%) + Developmental: Decreased neonatal survival (90% …) was 25 mg/kg-day. For the same compound, the LOAEL ([1]; developmental, duration: 19 days, F, Sprague-Dawley, Developmental: Increased incidences of cleft palate) was 10 mg/kg-day, the LOAEL [1, 6] was 2 mg/kg-day and the NOAEL [1, 6] was 1 mg/kg-day. The NOAEL ([1]; developmental, duration: 21 days, F, Sprague-Dawley) was 1 mg/kg-day, the LOAEL ([1]; developmental, duration: 21 days, F, Sprague-Dawley, Developmental: 2.1-fold increased fetal thyroid cell proliferation on GD 20) was 1 mg/kg-day and the LOAEL [1, 7] was 1 mg/kg-day. For the same compound, the NOAEL [1, 7] was 0.3 mg/kg-day, the LOAEL ([1]; developmental, duration: 67 days, F, Sprague-Dawley, >10% decrease in mean pup weight per litter on PND 5 at ?0.4 mg/kg/day / ~50% decrease mean pup survival per litter on PND 5 at ?1.6 mg/kg/…) was 1.6 mg/kg-day and the LOAEL ([1]; developmental, duration: 67 days, F, Sprague-Dawley, Developmental: >10% decrease in mean pup weight per litter on PND 5 at ?0.4 mg/kg/day / ~50% decrease mean pup survival per litter on PND 5…) was 0.4 mg/kg-day. The NOAEL ([1]; developmental, duration: 84 days, M/F, Sprague-Dawley, Developmental: Delayed eye opening and transient decrease in F2 pup body weight (13%) on LDs 7-14 at ?0.4 mg/kg/day / decreased pup …) was 0.1 mg/kg-day, the LOAEL ([1]; developmental, duration: 90 days, F, Sprague-Dawley, Increased pup mortality during PNDs 1-4) was 1.6 mg/kg-day and the LOAEL ([1]; developmental, duration: 91 days, F, Sprague-Dawley, Developmental: 19-36% reduced serum T4 levels in pups on PNDs 21-35 after gestationand/or postnatal-only exposure) was 3.2 mg/kg-day. It also gave an NOAEL ([1]; reproduction developmental, duration: 19 days, F, Sprague-Dawley) of 10 mg/kg-day, an LOAEL [1, 8] of 2 mg/kg-day and an NOAEL [1, 8] of 1 mg/kg-day. For the same compound, the LOAEL ([1]; reproduction developmental, duration: 19 days, F, Sprague-Dawley, Endocrine: Reduced total and free T4 and T3) was 1 mg/kg-day, the LOAEL [1, 9] was 2 mg/kg-day and the NOAEL [1, 9] was 1.6 mg/kg-day. The LOAEL [1, 10] was 3.2 mg/kg-day, the NOAEL [1, 10] was 1.6 mg/kg-day and the NOAEL ([1]; reproduction developmental, duration: 84 days, M/F, Sprague-Dawley, Reproductive: No alterations in mating and fertility parameters) was 3.2 mg/kg-day. It also gave an NOAEL ([1]; short-term, duration: 4 weeks, F, Sprague-Dawley, Immunotoxicological: No histological alterations + Neurological: No histological alterations) of 1.77 mg/kg-day, an NOAEL ([1]; short-term, duration: 4 weeks, M, Sprague-Dawley, Reproductive: No histological alterations) of 1.51 mg/kg-day and an NOAEL ([1]; short-term, duration: 7 days, M, Sprague-Dawley, Hepatic: Decreased serum cholesterol (38%) and triglyceride (55%) levels at 8.17 mg/kg/day) of 8.17 mg/kg-day. The NOAEL ([1]; short-term, duration: 7 days, M, Sprague-Dawley, Hepatic: Hepatocellular hypertrophy, increased liver weight, decreased serum cholesterol at ?1.79 mg/kg/day) was 8.96 mg/kg-day, the NOAEL ([1]; short-term, duration: 7 days, M, Wistar, Hepatic: 40% increase in absolute liver weight) was 15 mg/kg-day and the LOAEL [1, 11] was 7.01 mg/kg-day. It also gave an NOAEL [1, 11] of 3.47 mg/kg-day, an LOAEL [1, 12] of 1.23 mg/kg-day and an NOAEL [1, 12] of 0.14 mg/kg-day. For the same compound, the NOAEL ([1]; short-term, duration: 28 days, M, Sprague-Dawley, Hepatic: Hepatocellular hypertrophy and decreased serum cholesterol levels at ?1.54 mg/kg/day) was 7.34 mg/kg-day, the NOAEL ([1]; short-term, duration: 28 days, M, Sprague-Dawley, Hepatic: Increased relative liver weight / hepatocellular hypertrophy in males at 5.89 mg/kg/day) was 5.89 mg/kg-day and the NOAEL ([1]; subchronic, duration: 67 days, F, Sprague-Dawley, Hepatic: 16% reduction in serum total cholesterol on PND 5 at ?0.4 mg/kg/day / increased liver weight in dams at ?0.8 mg/kg/day + …) was 2 mg/kg-day. For the same compound, the LOAEL ([2]; developmental, duration: 4 weeks, M, CD1, Developmental: Impaired retention of the task in the water maze test) was 3 mg/kg-day, the LOAEL ([2]; developmental, duration: 1 days, M, CD1, Developmental: 24% decreased total spontaneous activity at 2 months of age / no significant alteration at 4 months) was 0.75 mg/kg-day and the LOAEL ([2]; developmental, duration: 4 days, F, Developmental: 31% reduced percentage of live pups per litter on PND 15) was 4.5 mg/kg-day. It also gave an LOAEL ([2]; developmental, duration: 5 days, F, ICR, Developmental: 6.1% increased cleft palate and 12.7% reduced body weight in fetuses) of 50 mg/kg-day, an NOAEL ([2]; developmental, duration: 7 days, F, CD1) of 6 mg/kg-day and an LOAEL ([2]; developmental, duration: 7 days, F, CD1, Developmental: Decreased distance traveled in open field test at 3 months of age) of 6 mg/kg-day. It also gave an LOAEL ([2]; developmental, duration: 7 days, F, CD1, Developmental: Reduced body weight of pups on PNDs 4 and 8) of 6 mg/kg-day, an LOAEL [2, 13] of 1 mg/kg-day and an NOAEL [2, 13] of 0.1 mg/kg-day. The NOAEL ([2]; developmental, duration: 17 days, F, CD1, Developmental: Increased incidences of sternal defects at ?5 mg/kg/day / reduced percentage of live fetuses (9%) at 20 mg/kg/day) was 1 mg/kg-day, the NOAEL ([2]; developmental, duration: 17 days, F, CD1, Developmental: Peroxisome proliferation in fetal liver at ?5 mg/kg/day) was 5 mg/kg-day and the LOAEL ([2]; developmental, duration: 17 days, F, ICR, Body Weight: 35% reduced maternal body weight + Developmental: 89% increased cleft palate, 25% reduced body weight in fetuses) was 20 mg/kg-day. It also gave an LOAEL ([2]; developmental, duration: 18 days, F, ICR, Developmental: GDs 0-18: decreased survival (55.2%) at 10 mg/kg/day on PND 4, decreased neonatal BW, intracranial blood vessel dilatation, …) of 10 mg/kg-day, an NOAEL ([2]; developmental, duration: 18 days, F, ICR, Hepatic: 60% increased absolute liver weight at ?10 mg/kg/day) of 20 mg/kg-day and an LOAEL ([2]; developmental, duration: 21 days, F, Developmental: Decreased locomotion, muscle strength, and motor coordination in adult offspring) of 0.3 mg/kg-day. For the same compound, the NOAEL ([2]; reproduction developmental, duration: 5 days, F, ICR, […] increased maternal relative liver weight) was 50 mg/kg-day, the NOAEL ([2]; reproduction developmental, duration: 13 days, F, CD1, Endocrine: No alterations in serum T3 or T4 levels + Hepatic: 21% increase in absolute liver weight at ?3 mg/kg/day) was 6 mg/kg-day and the LOAEL [2, 14] was 20 mg/kg-day. The NOAEL [2, 14] was 15 mg/kg-day, the NOAEL ([2]; reproduction developmental, duration: 17 days, F, CD1, Increase in absolute and relative liver weight and decreased serum triglycerides at ?5 mg/kg/day) was 20 mg/kg-day and the NOAEL ([2]; short-term, duration: 14 days, M, CD1, Hepatic: ~70% increased absolute liver weight at ?5 mg/kg/day) was 10 mg/kg-day. It also gave an LOAEL [2, 15] of 10 mg/kg-day, an NOAEL [2, 15] of 5 mg/kg-day and an NOAEL ([2]; short-term, duration: 21 days, M, CD1, Hepatic: Increased absolute liver weight at ?5 mg/kg/day) of 10 mg/kg-day. For the same compound, the LOAEL [2, 16] was 0.00166 mg/kg-day, the NOAEL [2, 16] was 0.000166 mg/kg-day and the LOAEL [2, 17] was 0.0833 mg/kg-day. The NOAEL [2, 17] was 0.0083 mg/kg-day and 0.0167 mg/kg-day.
